Measured values from patent publication US20260256923A1, “NEW RECRUITMENT ELEMENT OF UBIQUITIN LIGASE AND USE THEREOF” (SHENZHEN LINGGENE BIOTECH CO., LTD., priority 2023, published 2026).

Legend:
Format in all cases: cell-based
[1] = tested on: MCF 10A human normal mammary epithelial cells; experiment: Toxicity to normal cells, cell apoptosis proportion by flow cytometer; details: 0-5000 nM, 4 days, medium renewed every day
Procedure: The toxicity of AS1411 to normal cells was compared with that of the small molecule ligand nutlin-3a of MDM2 to normal cells. AS1411 or nutlin-3a at different concentrations (0 nM, 500 nM, 1000 nM, and 5000 nM) was incubated with MCF 10A human normal mammary epithelial cells for 4 days, and the medium containing the respective concentrations of AS1411 or nutlin-3a was renewed every day. The cell apoptosis proportion was detected using a flow cytometer.

STAT3 [2] = molecular target: T1, STAT3 (Homo sapiens, UniProt P40763); experiment: STAT3 protein degradation in HOS osteosarcoma cells, western blot; design: endogenous in cells; details: 500 nM, 6 h
Procedure: (§1) HOS osteosarcoma cells were incubated with 500 nM double-stranded transcription factor decoy oligonucleotide S3, AS1411, the first PROTAC product 1411-S3-1, the second PROTAC product 1411-S3-2, or AS1411+double-stranded transcription factor decoy oligonucleotide S3. After 6 h, cell samples were collected for protein extraction and subsequent western blot assay.

STAT3 [3] = molecular target: T1, STAT3; experiment: STAT3 protein degradation in HeLa cells, western blot; design: endogenous in cells; host or cells: HeLa; details: 500 nM, 6 h
Procedure: HeLa cells were incubated with 500 nM said first PROTAC product 1411-S3-1 or second PROTAC product 1411-S3-2, and corresponding cell samples were collected at time gradients of 0 h, 2 h, 6 h, 12 h, 18 h, and 24 h for protein extraction and subsequent western blot assay.
HeLa cells were incubated with the first PROTAC product 1411-S3-1 or the second PROTAC product 1411-S3-2 at concentrations of 0 nM, 100 nM, 200 nM, 500 nM, and 1000 nM. After 6 h, cell samples were collected for protein extraction and subsequent western blot assay. […] The half-maximal degradation concentrations (DC50) of the first PROTAC product 1411-S3-1 and the second PROTAC product 1411-S3-2 against STAT3 at the protein level were 262.5 nM and 136.3 nM, respectively, as shown in FIG. 19.
as §1, with “HeLa” for “HOS osteosarcoma”
HeLa cells were incubated with 500 nM said first PROTAC product 1411-S3-1 or second PROTAC product 1411-S3-2, and proteasome inhibitor MG132 was added. After 6 h, cell samples were collected for protein extraction and subsequent western blot assay. […]

MDM2 = MDM2 (Homo sapiens, UniProt Q00987); experiment: Pull-down with biotin-labeled AS1411 in HeLa cells transfected with si-NC or si-NCL; design: HeLa cervical cancer cells were lysed with an IP lysis solution; endogenous in cells; host or cells: HeLa; details: 500 nM biotin-labeled, 6 h, si-NCL vs si-NC
Procedure: HeLa cells were transfected with negative control siRNA (si-NC, SEQ ID NO: 16) or NCL siRNA (si-NCL, SEQ ID NO: 17) and subsequently incubated with 500 nM biotin-labeled AS1411 for 6 h. After cell lysis, the supernatant was incubated with streptavidin-coated magnetic beads at 4° C. overnight. The bound AS1411 and its captured proteins on the magnetic beads were eluted with an eluent, and the pull-down products were detected by western blot assay.

T1 sequence (P40763 whole entry): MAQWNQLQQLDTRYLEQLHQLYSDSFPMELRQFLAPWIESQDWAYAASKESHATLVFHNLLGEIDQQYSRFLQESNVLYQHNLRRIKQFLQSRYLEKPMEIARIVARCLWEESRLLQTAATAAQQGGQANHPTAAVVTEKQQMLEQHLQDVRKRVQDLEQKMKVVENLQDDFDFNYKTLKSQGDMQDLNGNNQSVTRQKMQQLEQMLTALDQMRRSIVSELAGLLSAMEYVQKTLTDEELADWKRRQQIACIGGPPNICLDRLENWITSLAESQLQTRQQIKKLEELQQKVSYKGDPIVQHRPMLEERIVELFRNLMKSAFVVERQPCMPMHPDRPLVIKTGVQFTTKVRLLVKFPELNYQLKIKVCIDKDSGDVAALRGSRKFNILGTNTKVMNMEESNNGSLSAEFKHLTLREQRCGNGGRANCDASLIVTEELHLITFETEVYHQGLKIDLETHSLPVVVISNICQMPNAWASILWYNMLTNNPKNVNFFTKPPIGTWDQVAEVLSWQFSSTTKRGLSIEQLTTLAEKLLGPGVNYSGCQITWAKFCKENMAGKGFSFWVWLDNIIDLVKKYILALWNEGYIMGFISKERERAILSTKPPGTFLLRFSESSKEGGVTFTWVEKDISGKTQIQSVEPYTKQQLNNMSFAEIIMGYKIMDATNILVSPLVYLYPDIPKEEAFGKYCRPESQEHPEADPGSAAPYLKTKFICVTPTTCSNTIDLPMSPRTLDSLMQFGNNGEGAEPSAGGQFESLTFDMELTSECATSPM
Chain of MDM2 (P19338 2-710 partner limits assumed): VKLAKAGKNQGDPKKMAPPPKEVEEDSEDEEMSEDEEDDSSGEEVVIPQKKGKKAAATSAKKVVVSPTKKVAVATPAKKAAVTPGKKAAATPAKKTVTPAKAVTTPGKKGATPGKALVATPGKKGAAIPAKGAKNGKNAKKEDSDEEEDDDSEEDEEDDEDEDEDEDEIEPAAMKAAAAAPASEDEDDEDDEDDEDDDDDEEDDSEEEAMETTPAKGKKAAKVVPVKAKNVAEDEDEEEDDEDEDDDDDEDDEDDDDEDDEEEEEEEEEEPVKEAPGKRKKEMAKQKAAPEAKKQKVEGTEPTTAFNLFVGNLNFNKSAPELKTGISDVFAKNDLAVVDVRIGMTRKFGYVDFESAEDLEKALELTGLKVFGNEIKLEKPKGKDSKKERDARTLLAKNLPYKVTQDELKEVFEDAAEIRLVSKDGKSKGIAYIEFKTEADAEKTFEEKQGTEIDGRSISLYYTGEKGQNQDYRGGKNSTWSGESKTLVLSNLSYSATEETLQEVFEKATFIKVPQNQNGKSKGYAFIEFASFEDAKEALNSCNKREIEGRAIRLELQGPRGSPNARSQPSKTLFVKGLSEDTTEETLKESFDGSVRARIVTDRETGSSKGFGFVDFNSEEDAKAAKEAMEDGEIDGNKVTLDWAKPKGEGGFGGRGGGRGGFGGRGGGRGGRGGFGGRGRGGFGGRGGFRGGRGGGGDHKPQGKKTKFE
Chain of MDM2 (Q00987 whole entry): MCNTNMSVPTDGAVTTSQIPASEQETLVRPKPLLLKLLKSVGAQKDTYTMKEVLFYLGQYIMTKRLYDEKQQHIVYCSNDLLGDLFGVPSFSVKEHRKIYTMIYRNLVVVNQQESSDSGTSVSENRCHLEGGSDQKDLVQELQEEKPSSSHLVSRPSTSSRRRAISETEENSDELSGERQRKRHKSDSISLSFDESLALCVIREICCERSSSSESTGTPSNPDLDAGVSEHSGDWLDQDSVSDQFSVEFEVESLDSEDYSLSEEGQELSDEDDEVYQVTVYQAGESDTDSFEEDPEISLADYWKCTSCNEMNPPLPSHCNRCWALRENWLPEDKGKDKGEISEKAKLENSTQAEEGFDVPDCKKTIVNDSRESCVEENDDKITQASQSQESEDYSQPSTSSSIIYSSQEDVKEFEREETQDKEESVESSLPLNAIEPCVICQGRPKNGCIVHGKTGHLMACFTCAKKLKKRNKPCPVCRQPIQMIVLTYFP

AS1411: DNA aptamer, GRO binding NCL, SEQ ID NO: 1: 5′-GGTGGTGGTGGTTGTGGTGGTGGTGG-3′
toxicity to normal cells (cell apoptosis proportion) [1]: has no significant toxicity
protein level of STAT3 (STAT3 [2]): only the first PROTAC product 1411-S3-1 and the second PROTAC product 1411-S3-2 can reduce the protein level of transcription factor STAT3
protein level of STAT3 (STAT3 [3]): only the first PROTAC product 1411-S3-1 and the second PROTAC product 1411-S3-2 can reduce the protein level of transcription factor STAT3
recruitment of MDM2 when NCL is silenced (MDM2): silencing NCL can block the recruitment of MDM2 by AS1411
